Measured values taken from patent publication US20140024716A1, “Composition Comprising S-Allyl-L-Cysteine as Active Ingredient for Preventing or Treating Gastrointestinal Disorders” (PHARMAKING CO., LTD., priority 2009, published 2014).
Where “and” joins values, the source holds several entries; their conditions need not be identical. Equal entries are not always repeated. Entries after “also recorded” stand apart in the source; their conditions may differ.

Legend:
H. pylori ATCC 43504 = assay: Serum anti-H. pylori IgG (ELISA) in Helicobacter pylori-infected mice; format: in vivo, C57BL/6 mice
Experimental: (§1) S-allyl-L-Cysteine (SAC) was purchased from TCI Chemical Co. (Tokyo, Japan). Helicobacter pylori was American Type Culture Collection (ATCC) 43504 (cagA+, vacA s1-ml type) and cultured in a Mueller Hinton-Agar broth at 37° C. for 48 hours, under 5% CO2 microaerophilic conditions with a concentration of 1×10^9 CFU/ml.
(§2) 8-week old male C57BL/6 mice were classified into 4 groups, i.e., a positive control group (to which Helicobacter pylori was administered; PC), a negative control group (to which saline was administered; NC), experimental group 1 (to which Helicobacter pylori and 200 mg/kg of SAC were administered; SAC1), and experimental group 2 (to which Helicobacter pylori and 400 mg/kg of SAC were administered; SAC2). Each group had 10 mice. White powdered SAC was diluted in tap water to concentrations of 20 mg/mL and 40 mg/mL and 10 μl/g (body weight) of the diluted SAC was orally administered to the mice of the SAC1 and SAC2 groups three times a week for 10 weeks. The mice were given free access to tap water for the entire test period. […]
(§3) Enzyme-linked immunosorbent assay (ELISA) was used in order to identify the effect of SAC on serum anti-Helicobacter pylori antibody-formation capability. […] 100 μl of 0.2 M sulfuric acid was added thereto to terminate the reaction and absorbance was measured at 450 nm.

[1] = system: Helicobacter pylori-producing toxin VacA; assay: Serum anti-s1 m1 VacA IgG (ELISA) in Helicobacter pylori-infected mice; format: in vivo, C57BL/6 mice; details: SAC1 and SAC2 groups (200 and 400 mg/kg SAC)
Experimental: as §1, §2, §3

[2] = system: gastric lesions of rats induced by aspirin; assay: Aspirin-induced gastric lesion animal model; format: in vivo, Sprague-Dawley rats; details: for Ulcer Area (mm^2), group mean: n = 6
Description: SAC was purchased from TCI Chemical Co. (Tokyo, Japan). Sterile water for injection (Model No. 73H5F21, Dae Han Pharmaceutical Co. Ltd.) was used as a vehicle, and Stillen® was used as a positive control material. 0.5% CMC-Na and sterile water for injection were used as excipients for Stillen®. Hydrochloric acid was purchased from Samjung Chemical, Co., ethanol was purchased from Baker, Co., aspirin was purchased from Sigma, Co., and indomethacin was purchased from Sigma, Co.
7 to 8-week old male specific pathogen free (SPF) HsdKoat:Sprague-Dawley®™ SD®™rats (weight of 7-week old males was in the range of 208.44 to 227.39 g, and weight of 8-week old maleswas in the range of 223.85 to 245.03 g, purchased from Koatech, Co. Ltd., Gyunggido, Korea) were quarantined and acclimated in the Animal Lab for 7 days. The rats were bred at a temperature of 23 3° C., at a relative humidity of 55 15%, with light for 12 hours (light turned on at 08:00 and light turned off at 20:00) while air was ventilated 10 to 20 times/hr in the Animal Experiment Lab of Gyeonggi Bio-Center. Other environments for breeding which might influence the test for the entire test period were not considered for use. The rats were given free access to a solid laboratory diet (Harlan Co. Ltd., USA. Teklad certified global 18% protein rodent diet, 2918C) that was supplied by Folas International. […] The rats were given free access to tap water that was sterilized using a UV sterilizer and a micro filter with water bottles.
The rats were classified into a vehicle control group G1 to which only a vehicle was administered, a experimental group G2 to which 100 mg/kg of SAC was administered, a experimental group G3 to which 200 mg/kg of SAC was administered, a experimental group G4 to which 400 mg/kg of SAC was administered, and a positive control group G5 to which 100 mg/kg of Stillen® (55.6 mg/kg as an active ingredient) as a positive control material were administered. Each group included 8 rats in a hydrochloric acid-ethanol-induced animal model (Experiment Example 7) and included 6 rats in an aspirin-induced animal model (Experimental Example 8) and in an indomethacin-induced animal model (Experimental Example 9).
The test substance was directly administered to the stomach using an injection tube equipped with a sonde for oral administration in a single dose once per day.
The rats were fasted for more than 24 hours in a normal environment, the test substance was administered, and 200 mg/kg of aspirin in 0.15 mol/L HCl was orally administered after 30 minutes. After three hours from the aspirin administration, the rats were sacrificed under ether anesthesia and their stomachs including parts of the duodenum and esophagus were isolated. The stomachs were was fixed for 10 minutes by injecting 12 ml of 2% formalin. The greater curvature of each stomach was incised and unfolded, photographs of the gastric grandular region were taken, and then the areas of the lesions were measured using an image analyzer.
Gastric lesion inhibiting rate (%)=(average area of the vehicle control group-area of gastric lesion of each animal)/average area of the vehicle control group×100.

Structure (SMILES): C=CCSC[C@H](N)C(=O)O [SAC, S-allyl-L-cysteine]
- antibody titer of anti-H. pylori IgG in serum, SAC2 versus SAC1 group (H. pylori ATCC 43504; 400 mg/kg versus 200 mg/kg SAC): significantly less than that in the SAC1 group
- antibody titer of anti-H. pylori IgG in serum versus PC group (H. pylori ATCC 43504; SAC1 and SAC2 groups (200 and 400 mg/kg SAC oral, 10 weeks)): significantly less; also recorded: less than that in the PC group
- production of antibody against VacA (anti-s1 m1 VacA IgG) [1]: inhibited in the same manner as in the anti-H. pylori IgG
- Ulcer area of individual animal (Animal number 1-6) ([2]; G2: 100 mg/kg SAC): 91.68 and 44.12 and 40.95 and 63.52 (2×) and 64.67
- Ulcer Area (mm^2), group mean ([2]; G2: 100 mg/kg SAC oral, 30 min before 200 mg/kg aspirin): 68.6±25.94 mm^2 and 68.6 mm^2
- Ulcer area of individual animal (Animal number 1-6) ([2]; G3: 200 mg/kg SAC): 46.29 and 19.37 and 5.41 and 27.07 (2×) and 43.86
- Ulcer Area (mm^2), group mean ([2]; G3: 200 mg/kg SAC): 31.4±16.99 mm^2 and 31.4 mm^2
- Ulcer area of individual animal (Animal number 1-6) ([2]; G4: 400 mg/kg SAC): 63.26 and 9.34 and 70.28 and 40.03 (2×) and 11.58
- Ulcer Area (mm^2), group mean ([2]; G4: 400 mg/kg SAC): 32.5±29.78 mm^2 and 32.5 mm^2
- gastric lesion inhibiting rate (%) up to ([2]; highest rate over SAC doses): about 85%
